# Source: PubChem BioAssay AID1745844 (Carcinogenic Potency Database (CPDB), 2022)
# Where “and” joins values, the source holds several entries; their conditions need not be identical. Equal values may be shown once. Calls of active or inactive are those of the source. The rule behind the calls is not given here.
# System: rodent lifetime carcinogenesis bioassay, tumor incidence TD50
# Assay: carcinogenic potency in animals, long-term in vivo studies, CPDB compilation (AID 1745844)
# Conditions: inhaled; for carcinogen call: lesion: one or several types, types not named
smiles,measurement,setting,value
C=CC(=C)Cl,TD50,"hamster, strain Syrian Golden, females, site: any site (literature study), lesion: several types, types named in the paper, dosed 78 weeks, study length 78 weeks",180 mg/kg/day (inactive)
same,carcinogen call,"hamster, strain Syrian Golden, females, site: liver, dosed 78 weeks, study length 78 weeks",negative (inactive)
same,carcinogen call,"hamster, strain Syrian Golden, females, site: lung, dosed 78 weeks, study length 78 weeks",negative (inactive)
same,TD50,"hamster, strain Syrian Golden, males, site: any site (literature study), lesion: several types, types named in the paper, dosed 78 weeks, study length 78 weeks",110 mg/kg/day (inactive)
same,carcinogen call,"hamster, strain Syrian Golden, males, site: liver, dosed 78 weeks, study length 78 weeks",negative (inactive)
same,carcinogen call,"hamster, strain Syrian Golden, males, site: lung, dosed 78 weeks, study length 78 weeks",negative (inactive)
same,TD50,"mouse, strain B6C3F1, females, site: Harderian gland, lesion: adenoma + carcinoma, dosed 104 weeks, study length 104 weeks",55.2 mg/kg/day
same,TD50,"mouse, strain B6C3F1, females, site: Harderian gland, lesion: adenoma, dosed 104 weeks, study length 104 weeks",61.3 mg/kg/day
same,TD50,"mouse, strain B6C3F1, females, site: Zymbal's gland, lesion: carcinoma, dosed 104 weeks, study length 104 weeks",864 mg/kg/day
same,TD50,"mouse, strain B6C3F1, females, site: all sites + forestomach + Harderian gland + liver + lung + mesentery + mammary gland + subcutaneous tissue + Zymbal's gland, lesion: hemangioma + hemangiosarcoma + squamous-cell carcinoma + squamous-cell papilloma + adenoma + carcinoma + hepatocellular adenoma + hepa, dosed 104 weeks, study length 104 weeks",4 mg/kg/day
same,TD50,"mouse, strain B6C3F1, females, site: all sites, lesion: hemangioma + hemangiosarcoma, dosed 104 weeks, study length 104 weeks",21.5 mg/kg/day
same,TD50,"mouse, strain B6C3F1, females, site: all sites, lesion: hemangioma, dosed 104 weeks, study length 104 weeks",134 mg/kg/day
same,TD50,"mouse, strain B6C3F1, females, site: all sites, lesion: hemangiosarcoma, dosed 104 weeks, study length 104 weeks",22.2 mg/kg/day
same,TD50,"mouse, strain B6C3F1, females, site: any site (literature study), lesion: several types, types named in the paper, dosed 104 weeks, study length 104 weeks",3.92 mg/kg/day
same,TD50,"mouse, strain B6C3F1, females, site: forestomach, lesion: squamous-cell carcinoma + squamous-cell papilloma, dosed 104 weeks, study length 104 weeks",332 mg/kg/day
same,TD50,"mouse, strain B6C3F1, females, site: liver, lesion: hepatocellular adenoma + hepatoblastoma + hepatocellular carcinoma, dosed 104 weeks, study length 104 weeks",7.07 mg/kg/day
same,TD50,"mouse, strain B6C3F1, females, site: liver, lesion: hepatocellular adenoma + hepatocellular carcinoma, dosed 104 weeks, study length 104 weeks",7.07 mg/kg/day
same,TD50,"mouse, strain B6C3F1, females, site: liver, lesion: hepatocellular adenoma, dosed 104 weeks, study length 104 weeks",19.8 mg/kg/day
same,TD50,"mouse, strain B6C3F1, females, site: liver, lesion: hepatocellular carcinoma, dosed 104 weeks, study length 104 weeks",15.2 mg/kg/day
same,TD50,"mouse, strain B6C3F1, females, site: lung, lesion: alveolar/bronchiolar adenoma + alveolar/bronchiolar carcinoma, dosed 104 weeks, study length 104 weeks",5.36 mg/kg/day
same,TD50,"mouse, strain B6C3F1, females, site: lung, lesion: alveolar/bronchiolar adenoma, dosed 104 weeks, study length 104 weeks",8.65 mg/kg/day
same,TD50,"mouse, strain B6C3F1, females, site: lung, lesion: alveolar/bronchiolar carcinoma, dosed 104 weeks, study length 104 weeks",14.6 mg/kg/day
same,TD50,"mouse, strain B6C3F1, females, site: mammary gland, lesion: adenoma + carcinoma, dosed 104 weeks, study length 104 weeks",65.6 mg/kg/day
same,TD50,"mouse, strain B6C3F1, females, site: mammary gland, lesion: carcinoma, dosed 104 weeks, study length 104 weeks",75.3 mg/kg/day
same,TD50,"mouse, strain B6C3F1, females, site: mesentery, lesion: hemangioma + hemangiosarcoma, dosed 104 weeks, study length 104 weeks",25.9 mg/kg/day
same,TD50,"mouse, strain B6C3F1, females, site: mesentery, lesion: hemangiosarcoma, dosed 104 weeks, study length 104 weeks",32.2 mg/kg/day
same,TD50,"mouse, strain B6C3F1, females, site: mesentery, lesion: sarcoma, dosed 104 weeks, study length 104 weeks",40 mg/kg/day
same,TD50,"mouse, strain B6C3F1, females, site: pituitary gland, lesion: pars distalis adenoma, dosed 104 weeks, study length 104 weeks",68.1 mg/kg/day
same,TD50,"mouse, strain B6C3F1, females, site: subcutaneous tissue, lesion: sarcoma, dosed 104 weeks, study length 104 weeks",28.9 mg/kg/day
same,TD50,"mouse, strain B6C3F1, females, site: uterus, lesion: endometrial stromal polyp, dosed 104 weeks, study length 104 weeks",133 mg/kg/day
same,TD50,"mouse, strain B6C3F1, males, site: Harderian gland, lesion: adenoma + adenoma, bilateral + carcinoma, dosed 104 weeks, study length 104 weeks",60.9 mg/kg/day
same,TD50,"mouse, strain B6C3F1, males, site: Harderian gland, lesion: adenoma + adenoma, bilateral, dosed 104 weeks, study length 104 weeks",79.5 mg/kg/day
same,TD50,"mouse, strain B6C3F1, males, site: all sites + forestomach + Harderian gland + lung, lesion: hemangioma + hemangiosarcoma + squamous-cell carcinoma + squamous-cell papilloma + adenoma + adenoma, bilateral + carcinoma + alveolar, dosed 104 weeks, study length 104 weeks",8.68 mg/kg/day
same,TD50,"mouse, strain B6C3F1, males, site: all sites, lesion: hemangioma + hemangiosarcoma, dosed 104 weeks, study length 104 weeks",17.9 mg/kg/day and 21.3 mg/kg/day
same,TD50,"mouse, strain B6C3F1, males, site: all sites, lesion: hemangiosarcoma, dosed 104 weeks, study length 104 weeks",19.1 mg/kg/day and 23.8 mg/kg/day
same,TD50,"mouse, strain B6C3F1, males, site: any site (literature study), lesion: several types, types named in the paper, dosed 104 weeks, study length 104 weeks",28.4 mg/kg/day
same,TD50,"mouse, strain B6C3F1, males, site: forestomach, lesion: squamous-cell carcinoma + squamous-cell papilloma, dosed 104 weeks, study length 104 weeks",291 mg/kg/day
same,TD50,"mouse, strain B6C3F1, males, site: forestomach, lesion: squamous-cell papilloma, dosed 104 weeks, study length 104 weeks",335 mg/kg/day
same,TD50,"mouse, strain B6C3F1, males, site: kidney, lesion: tubule adenoma, dosed 104 weeks, study length 104 weeks",301 mg/kg/day and 129 mg/kg/day
same,TD50,"mouse, strain B6C3F1, males, site: liver, lesion: hemangiosarcoma, dosed 104 weeks, study length 104 weeks",123 mg/kg/day
same,TD50,"mouse, strain B6C3F1, males, site: liver, lesion: hepatoblastoma + hepatocellular carcinoma, dosed 104 weeks, study length 104 weeks",19.5 mg/kg/day
same,TD50,"mouse, strain B6C3F1, males, site: liver, lesion: hepatocellular adenoma + hepatoblastoma + hepatocellular carcinoma, dosed 104 weeks, study length 104 weeks",39.9 mg/kg/day
same,TD50,"mouse, strain B6C3F1, males, site: liver, lesion: hepatocellular adenoma + hepatocellular carcinoma, dosed 104 weeks, study length 104 weeks",42.5 mg/kg/day
same,TD50,"mouse, strain B6C3F1, males, site: liver, lesion: hepatocellular adenoma, dosed 104 weeks, study length 104 weeks",71.9 mg/kg/day
same,TD50,"mouse, strain B6C3F1, males, site: liver, lesion: hepatocellular carcinoma, dosed 104 weeks, study length 104 weeks",21.6 mg/kg/day
